Results from patent US9315475B2 (MERCK SHARP & DOHME CORP., priority 2011, dated 2016).

Experiments:
[1] = target: T1, wildtype HIV-1 protease (Human immunodeficiency virus type 1 group M subtype B, UniProt P04585); assay: Assay for inhibition of microbial expressed HIV protease (Pepcleav); assay type: biochemical; details: wild type HIV-1 protease expressed in E. coli, peptide substrate, pH 5.5; mean of at least two independent experiments; read-out: Pepcleav
T1 construct: the wildtype HIV-1 protease (which was expressed in Escherichia coli); made in house; host or cells: Escherichia coli
Summary of the method: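 Cleavage of 400 μM peptide substrate Val-Ser-Gln-Asn-(βnaphthyl)Ala-Pro-Ile-Val by 20 pM wild-type enzyme (E. coli-expressed) ran 1 h at 30 °C after 30 min inhibitor preincubation, pH 5.5 acetate buffer. Inhibition derived from product peak area by C18 LC with multiple-reaction-monitoring MS after formic acid quench.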

[2] = tested on: HIV-1 (H9IIIB strain); assay: Antiviral acute infection assay in cell culture (Spread); assay type: cell-based; details: Human immunodeficiency virus 1, T-lymphoid, HIV-1 H9IIIB infection of MT-4 human T-lymphoid cells in 10% FBS; mean of at least two independent experiments
Source text: Antiviral Assays in Cell Culture (“Spread”)
Acute Infection Assay (“Spread”) data were generated using HIV-1 (H9IIIB strain) infection of MT-4 human T-lymphoid cells in 10% FBS, and according to the methods disclosed by J. P. Vacca et al, “L-735,524: An orally bioavailable human immunodeficiency virus type 1 protease inhibitor,” Proc. Natl. Acad. Sci. USA, Vol. 91, pp. 4096-4100 (April 1994).

`N[C@H](C(=O)Nc1cccc(F)c1CC[C@@H]1CN[C@H](COC(=O)NCC(F)(F)F)CO1)[C@@H](c1ccc(Cl)cc1)c1cccc(F)c1` [Example 274, (βS)-β-(4-chlorophenyl)-3-fluoro-N-(3-fluoro-2-{2-[(2R,5S)-5-({[(2,2,2-trifluoroethyl)carbamoyl]oxy}methyl)morpholin-2-yl]ethyl}phenyl)-L-phenylalaninamide] gave an IC50 [1] of 1.3 nM and an EC50 [2] of 11 nM.

Compound `N[C@H](C(=O)Nc1cncc(F)c1CC[C@@H]1CN[C@H](COC(=O)NCc2ccno2)CO1)C(c1ccc(F)cc1)c1ccc(F)cc1` [Example 255, 4-fluoro-N-(5-fluoro-4-{2-[(2R,5S)-5-({[(isoxazol-5-ylmethyl)carbamoyl]oxy}methyl)morpholin-2-yl]ethyl}pyridin-3-yl)-β-(4-fluorophenyI)-L-phenylalaninamide] has an IC50 [1] of 6.4 nM and an EC50 [2] of 210 nM.

With `N[C@H](C(=O)Nc1cncc(F)c1CC[C@@H]1CN[C@H](COC(=O)NCC(F)(F)F)CO1)[C@@H](c1ccc(Cl)cc1)c1cc(F)cc(F)c1` [Example 97, (βS)-β-(4-Chlorophenyl)-3,5-difluoro-N-(5-fluoro-4-{2-[(2R,5S)-5-({[(2,2,2-trifluoroethyl)carbamoyl]oxy}methyl)morpholin-2-yl]ethyl}pyridin-3-yl)-L-phenylalaninamide] the IC50 [1] was 0.8 nM and the EC50 [2] was 17 nM.

`N[C@H](C(=O)Nc1cncc(F)c1CC[C@@H]1CN[C@H](COC(=O)NCC(F)(F)F)CO1)[C@H](c1ccccc1)c1ccc(Cl)cc1` [Example 95, (βR)-β-(4-Chlorophenyl)-N-(5-fluoro-4-{2-[(2R,5S)-5-({[(2,2,2-trifluoroethyl)carbamoyl]oxy}methyl)morpholin-2-yl]ethyl}pyridin-3-yl)-L-phenylalaninamide] showed an IC50 [1] of 0.4 nM and an EC50 [2] of 16 nM.

For `C[C@H](Oc1c(F)cccc1NC(=O)[C@@H](N)C(c1ccc(F)cc1)c1ccc(F)cc1)[C@@H]1CN[C@H](COC(=O)NCC(F)(F)F)CO1` [Example 193, 4-fluoro-β-(4-fluorophenyl)-N-(3-fluoro-2-{(1S)-1-[(2S,5S)-5-({[(2,2,2-trifluoroethyl)carbamoyl]oxy}methyl)morpholin-2-yl]ethoxy}phenyl)-L-phenylalaninamide], the IC50 [1] was 120 nM and the EC50 [2] was 1400 nM.

For `N[C@H](C(=O)Nc1cncc(F)c1CC[C@@H]1CN[C@H](COC(=O)NCC2CCOCC2)CO1)C(c1ccc(F)cc1)c1ccc(F)cc1` [Example 208, 4-fluoro-β-(4-fluorophenyl)-N-(5-fluoro-4-{2-[(2R,5S)-5-({[(tetrahydro-2H-pyran-4-ylmethyl)carbamoyl]oxy}methyl)morpholin-2-yl]ethyl}pyridin-3-yl)-L-phenylalaninamide], the IC50 [1] was 18 nM and the EC50 [2] was 100 nM.

`COC(=O)N[C@H](C(=O)Nc1cncc(F)c1CC[C@@H]1CN[C@H](COC(=O)NCC(F)(F)F)CO1)[C@@H](c1ccc(F)cc1)c1cccc(F)c1` [Example 281, (βS)-3-fluoro-β-(4-fluorophenyl)-N-(5-fluoro-4-{2-[(2R, 5S)-5-({[(2,2,2-trifluoroethyl)carbamoyl]oxy}methyl)morpholin-2-yl]ethyl}pyridin-3-yl)-Nα-(methoxycarbonyl)-L-phenylalaninamide] showed an IC50 [1] of 0.9 nM and an EC50 [2] of 14 nM.

`N[C@H](C(=O)Nc1cncc(F)c1CC[C@@H]1CN[C@H](COC(=O)NCC(F)(F)F)CO1)[C@H](c1ccccc1)c1ccc(OC(F)(F)F)cc1` [Example 238, (βR)-N-(5-fluoro-4-{2-[(2R,5S)-5-({[(2,2,2-trifluoroethyl)carbamoyl]oxy}methyl)morpholin-2-yl]ethyl}pyridin-3-yl)-β-phenyl-O-(trifluoromethyl)-L-tyrosinamide] was tested, and the IC50 [1] was 69 nM and the EC50 [2] was 470 nM.

With `CN1CCC(NC(=O)OC[C@@H]2CO[C@H](CCc3c(F)cncc3NC(=O)[C@@H](N)C(c3ccc(F)cc3)c3ccc(F)cc3)CN2)C1=O` (stereo partly drawn) [Example 252, 4-fluoro-N-(5-fluoro-4-{2-[(2R,5S)-5-({[(1-methyl-2-oxopyrrolidin-3-yl)carbamoyl]oxy}methyl)morpholin-2-yl]ethyl}pyridin-3-yl)-β-(4-fluorophenyl)-L-phenylalaninamide] the IC50 [1] was 7.7 nM and the EC50 [2] was 160 nM.

`NC(=O)OC[C@@H]1CO[C@H](COc2c(F)cncc2NC(=O)[C@@H](N)C(c2ccc(F)cc2)c2ccc(F)cc2)CN1` [Example 206, N-[4-({(2S,5S)-5-[(carbamoyloxy)methyl]morpholin-2-yl}methoxy)-5-fluoropyridin-3-yl]-4-fluoro-β-(4-fluorophenyl)-L-phenylalaninamide] showed an IC50 [1] of 21 nM and an EC50 [2] of 120 nM.

For `N[C@H](C(=O)Nc1cncc(F)c1CC[C@@H]1CN[C@H](COC(=O)NCC(F)(F)F)CO1)[C@H](c1ccc(F)cc1)c1ccc(Cl)c(F)c1` [Example 221, (βR)-β-(4-chloro-3-fluorophenyl)-4-fluoro-N-(5-fluoro-4-{2-[(2R,5S)-5-({[(2,2,2-trifluoro-ethyl)carbamoyl]oxy}methyl)morpholin-2-yl]ethyl}pyridin-3-yl)-L-phenylalaninamide], the IC50 [1] was 1.1 nM and the EC50 [2] was 22 nM.

With `COC(=O)N[C@H](C(=O)Nc1cccc(F)c1CC[C@@H]1CN[C@H](COC(=O)NCC(F)(F)F)CO1)[C@H](c1ccccc1)c1cccc(OC)c1` [Example 305, (βR)-N-(3-fluoro-2-{2-[(2R,5S)-5-({[(2,2,2-trifluoroethyl)carbamoyl]oxy}methyl)morpholin-2-yl]ethyl}phenyl)-3-methoxy-Nα-(methoxy-carbonyl)-β-phenyl-L-phenylalaninamide] the IC50 [1] was 230 nM and the EC50 [2] was 42 nM.

`COC(=O)N[C@H](C(=O)Nc1cccc(F)c1CC[C@@H]1CN[C@H](COC(=O)NCC(F)(F)F)CO1)[C@H](c1ccccc1)c1ccc(F)c(F)c1` [Example 294, (βR)-β-(3,4-difluorophenyl)-N-(3-fluoro-2-{2-[(2R,5S)-5-({[(2,2,2-trifluoroethyl)carbamoyl]oxy}methyl)morpholin-2-yl]ethyl}phenyl)-Nα-(methoxycarbonyl)-L-phenylalaninamide] showed an IC50 [1] of 3.8 nM and an EC50 [2] of 14 nM.

For `O=C(C[C@H](c1ccc(F)cc1)c1ccc(Br)cc1)Nc1cccc(F)c1CC[C@@H]1CN[C@H](COC(=O)NCC(F)(F)F)CO1` [Example 155, {(3S,6R)-6-[2-(2-{[(3R)-3-(4-bromophenyl)-3-(4-fluorophenyl)propanoyl]amino}-6-fluoro-phenyl)ethyl]morpholin-3-yl}methyl (2,2,2-trifluoroethyl)carbamate], the IC50 [1] was 6.1 nM and the EC50 [2] was 58 nM.

`C[C@H](NC(=O)OC[C@@H]1CO[C@H](CCc2c(F)cccc2NC(=O)[C@@H](N)C(c2ccc(F)cc2)c2ccc(F)cc2)CN1)c1ccc(F)cc1` [Example 212, 4-fluoro-N-[3-fluoro-2-(2-{(2R,5S)-5-[({[(1S)-1-(4-fluorophenyl)ethyl]carbamoyl}oxy)methyl]morpholin-2-yl}ethyl)phenyl]-β-(4-fluorophenyl)-L-phenylalaninamide] showed an IC50 [1] of 11 nM and an EC50 [2] of 810 nM.

`N[C@H](C(=O)Nc1cncc(F)c1CC[C@@H]1CN[C@H](COC(=O)NCC(F)(F)F)CO1)[C@@H](c1ccc(F)cc1)c1ccc(F)c(F)c1` [Example 265, (βS)-3,4-difluoro-β-(4-fluorophenyl)-N-(5-fluoro-4-{2-[(2R,5S)-5-({[(2,2,2-trifluoroethyl)carbamoyl]oxy}methyl)morpholin-2-yl]ethyl}pyridin-3-yl)-L-phenylalaninamide] showed an IC50 [1] of 3.1 nM and an EC50 [2] of 36 nM.

`O=C(C[C@H](c1ccc(F)cc1)c1cncc(F)c1)Nc1cccc(F)c1CC[C@@H]1CN[C@H](COC(=O)NCC(F)(F)F)CO1` [Example 161, {(3S,6R)-6-[2-(2-fluoro-6-{[(3R)-3-(4-fluorophenyl)-3-(5-fluoropyridin-3-yl)propanoyl]amino}phenyl)ethyl]morpholin-3-yl}methyl (2,2,2-trifluoroethyl)carbamate] was tested, and the IC50 [1] was 12 nM and the EC50 [2] was 70 nM.

In the case of `N[C@H](C(=O)Nc1cncc(F)c1CC[C@@H]1CN[C@H](COC(=O)NCC(F)(F)F)CO1)[C@H](c1ccc(F)cc1)c1cccc(F)c1` (stereo in doubt) [Example 92], the IC50 [1] is reported as 4.4 nM and the EC50 [2] is reported as 43 nM.

Compound `O=C(CC(c1ccc(F)cc1)c1ccc(F)cc1)Nc1cncc(F)c1CC[C@@H]1CN[C@H](COC(=O)NC(CO)C(F)(F)F)CO1` (stereo partly drawn) [Example 167, {(3S,6R)-6-[2-(3-{[3,3-bis(4-fluoro-phenyl)propanoyl]amino}-5-fluoropyridin-4-yl)ethyl]morpholin-3-yl}methyl [2,2,2-trifluoro-1-(hydroxymethyl)ethyl] carbamate] has an IC50 [1] of 1.5 nM and an EC50 [2] of 1250 nM.

`COC(=O)N[C@H](C(=O)Nc1cccc(F)c1CC[C@@H]1CN[C@H](COC(=O)NCC(F)(F)F)CO1)C(c1ccc(F)cc1)c1ccc(F)cc1` [Example 285] was tested, and the IC50 [1] was 13 nM and the EC50 [2] was 21 nM.

For `N[C@H](C(=O)Nc1cncc(F)c1CC[C@@H]1CN[C@H](COC(=O)NCC(F)(F)F)CO1)[C@H](c1ccc(F)cc1)c1ccc(OC(F)(F)F)cc1` [Example 246, (βS)-β-(4-fluorophenyl)-N-(5-fluoro-4-{2-[(2R,5S)-5-({[(2,2,2-trifluoroethyl)carbamoyl]oxy}methyl)morpholin-2-yl]ethyl}pyridin-3-yl)-O-(trifluoromethyl)-L-tyrosinamide], the IC50 [1] was 13 nM and the EC50 [2] was 390 nM.
